The record followed here is patent US10703796B2, “CD44v6-derived cyclic peptides for treating cancers and angiogenesis related diseases” (AMCURE GMBH, priority 2014, dated 2020).

What all share (format): cell-based, human
In one assay the test system is Erk. The assay can be described thus: HGF-induced activation of Erk in Panc1 cells (blot of activated Erk vs total Erk). To be noted: peptide 30 nM for 5 min at 37° C. prior to HGF 10 ng/ml for 5 min. How it is done: (§1) Human adenocarcinoma cells, Panc1, were seeded at 2×10^5 cells per well in a 6-well plate. The day after seeding the cells, they were starved for 24 h. The following day, the cells were treated as indicated with either alga1 or D3alga1, a control peptide (N-A-A-A-E (SEQ ID NO: 37)) at a concentration of 30 nM for 5 min at 37° C. prior to induction with HGF (10 ng/ml) at 37° C. for 5 min. Results are given in FIG. 3 (A: alga1; B: D3alga1).
(§2) Human adenocarcinoma cells, Panc1, were seeded at 2×10^5 cells per well in a 6-well plate. The day after seeding, the cells were starved for 24 h. The following day, the cells were treated as indicated with either D1alga1, D2alga1 or D3alga1, a human CD44v6 14mer (h14mer) or control peptide (N-A-A-A-E (SEQ ID NO: 37)) at a concentration of 30 nM for 5 min at 37° C. prior to induction with HGF (10 ng/ml) at 37° C. for 5 min.

In the next assay the test system is c-Met. Nature of the assay: HGF-induced activation of c-Met in Panc1 cells (blot of activated Met vs total Met). To be noted: peptide 30 nM for 5 min at 37° C. prior to HGF 10 ng/ml for 5 min. As to the method:
as §1, §2

The subject of another assay is Panc 1 cells. The assay can be described thus: Wound healing assay, Example 9 (FIG. 15). To be noted: 500 nM, HGF 100 ng/ml, photos up to 48 hours after induction. As to the method:
Cell migration is connected to angiogenesis where cells need to migrate in order to form new blood vessels. Angiogenesis is related to cancer metastasis.
Panc 1 cells were seeded in 6-well plates at a concentration of 3×10^5 cells per well and were allowed to adhere and form a confluent monolayer. After a starving period of 24 hours, a scratch was inserted using a sterile pipette tip. Medium was aspirated to remove scratched cells and replaced by new starving medium. containing reagents as indicated at a concentration of […] tested for their blocking quality.
The following reagents were added to the medium at a concentration of 500 nM to test their blocking efficiency: D3-epga1, D4-epga1, D2-epal1, D3-epal1, D4-epal1, D3-alga1, D3-alga2, D4-alga2, D5-alga2, D6-alga3, Epga-1, Epal-1, Alga-2 and Alga-3. After 30 min incubation at 37° C., growth factor HGF was added to induce migration (HGF 100 ng/ml). Photos of the cells were taken immediately after scratch (Day 1), 24 hours (Day 2) and 48 hours (D3) after induction using a Canon Power Shot G12 digital camera.

Bridges are numbered along the chain shown (N, C = ends). Where no end group is shown, it is not given here. [ ]: non-standard residue; d: D form.

As for “D1alga1: cyclic CD44v6 5mer containing a D-amino acid at position 1 ([dK]RWHE; lactam N-5)”, the “activation of Erk” value in the assay with Erk was “blocks activation of c-Met and Erk”. The “activation of c-Met” value with c-Met is recorded as “blocks activation of c-Met”.
Turning to “D2alga1: cyclic CD44v6 5mer containing a D-amino acid at position 2 (K[dR]WHE; lactam N-5)”, in the assay on Erk, the “activation of Erk” value is “blocks activation of c-Met and Erk”. Besides, the “activation of c-Met” value in the assay with c-Met was “blocks activation of c-Met”.
“D3-epga1: cyclic 5 mer, ep/ga cyclisation, D-amino acid at position 3 per naming scheme (FIG. 13) (KR[dW]HE; lactam 1-5)”: in the assay with Panc 1 cells, the “blocking of cell migration” value is “efficient in blocking cell migration”.
Regarding “cy[αKGNRWHEγ] (KGNRW[dH]E; lactam N-7) [D6-alga3, cyclisation via N-terminal amino group of K and side chain carboxyl group of E, H is a D-amino acid]”, the “blocking of cell migration” value in the assay with Panc 1 cells is given as “Most efficient blocking of cell migration”.
On the same count and under the same terms, under cy[αKNRWHEγ] (lactam N-6) [Alga-2] stands “Most efficient blocking of cell migration”; under “cy[εKRWHEα]γ] (K[dR]WHE; lactam 1-C; also: cyclised per cy[εKRWHEα]γ], linkage unclear) [D2-epal1]”, “Most efficient blocking of cell migration”.
